The text below walks through data of article PMC5176352, “Structural basis for subtype-specific inhibition of the P2X7 receptor” (eLife, 2016).

One assay has as its target wildtype pdP2X7 (Ailuropoda melanoleuca, UniProt G1M6C4). The assay is described as follows: BzATP dose response of YO-PRO-1 uptake with antagonists, fitted with competitive / non-competitive inhibition models. It counts as cell-based, giant panda (Ailuropoda melanoleuca). The settings on record: for Kb: curve fitting of BzATP dose responses. The source says: To clarify the working mechanism for each drug, we measured the dose responses of the P2X7 mediated YO-PRO-1 uptake in the presence of each drug at multiple concentrations. We used BzATP—an artificial but potent agonist of P2X7 receptors—for these experiments to achieve saturating responses in the presence of concentrated antagonist.
(§1) Human embryonic kidney (HEK293) cells were maintained in DMEM medium (Thermo Fisher Scientific) supplemented with 10% FBS (Atlanta Biologicals, Flowery Branch, GA), and 10 μg/mL gentamicin (Thermo Fisher Scientific). HEK293 cells were split into six well plates at a cell density of 2.0 × 10^6 cells/well and incubated overnight. […] Cells were washed with assay buffer (2 mM KCl, 0.1 mM CaCl2, 13 mM Glucose, 147 mM NaCl, 10 mM HEPES (pH 7.3)) and were incubated with 5 μM YO-PRO-1 Iodide (Thermo Fisher Scientific), in the presence or absence of antagonists at multiple concentrations at 37°C for 10 min. Upon application of 1 mM ATP (final), uptake of YO-PRO-1 was recorded with 1 min intervals by following the fluorescence change using a Synergy HT multi-detection microplate reader (Bio-Tek, Winooski, VT; Ex: 485 nm/20, Em:528 nm/20, sensitivity 60). To obtain the dose dependent uptake inhibition by antagonists, the initial rates of YO-PRO-1 uptake were plotted against multiple concentrations of the P2X7 specific drugs. The inhibition curves from five independent measurements were fitted to the Hill equation using Origin software (Originlab, Northampton, MA) to determine the IC50 values.
Dose response curves of the YO-PRO-1 uptake experiments were fitted with either competitive or non-competitive inhibition models using Origin 6.0 software (OriginLab) as previously described ([Kenakin, 2006]). For the competitive antagonism model, we used the equation: Response=[A]/KA/[A]KA(1+τ)+[B]/KB+1
where [A] , [B] are the concentrations of BzATP and antagonists, respectively; KA and KB are the equilibrium dissociation-constant of BzATP and antagonists, respectively. […] KB was then determined using the dose response curves in the presence of antagonists. […] For the non-competitive inhibition model, we used the equation: Response=([A]^nτ^nEmax)/([A]^nτ^n+([A](1+α[B]/KB)+KA[B]/KB+KA)^n
where n is the Hill coefficient, and Emax is the maximum initial rate. […] Schild regression analysis was performed as described previously ([Wyllie and Chen, 2007]). Briefly, concentrations of BzATP at half maximal initial rates of YO-PRO-1 uptake in the presence (EC50’) or absence (EC50) of antagonists were determined by fitting the dose responses with the Hill equation.

The next assay deals with full length pdP2X7 (Ailuropoda melanoleuca, UniProt G1M6C4). The assay is described as follows: YO-PRO-1 uptake assay (inhibition of ATP-triggered dye uptake). It counts as cell-based, giant panda (Ailuropoda melanoleuca).
From the text: We further validated the drug-receptor interactions by site-directed mutagenesis on the drug-binding residues. To facilitate robust and systematic data collection, we monitored cellular uptake of the fluorescent dye, YO-PRO-1, as a proxy for receptor activity ([Surprenant et al., 1996]) (Figure 3—figure supplement 4A). […] In particular, interaction with F103 is crucial for the inhibitory action of all five drugs.
as §1

In the next assay the target is T1, pdP2X7 (Ailuropoda melanoleuca, UniProt G1M6C4).
T1 sequence (G1M6C4 2-606): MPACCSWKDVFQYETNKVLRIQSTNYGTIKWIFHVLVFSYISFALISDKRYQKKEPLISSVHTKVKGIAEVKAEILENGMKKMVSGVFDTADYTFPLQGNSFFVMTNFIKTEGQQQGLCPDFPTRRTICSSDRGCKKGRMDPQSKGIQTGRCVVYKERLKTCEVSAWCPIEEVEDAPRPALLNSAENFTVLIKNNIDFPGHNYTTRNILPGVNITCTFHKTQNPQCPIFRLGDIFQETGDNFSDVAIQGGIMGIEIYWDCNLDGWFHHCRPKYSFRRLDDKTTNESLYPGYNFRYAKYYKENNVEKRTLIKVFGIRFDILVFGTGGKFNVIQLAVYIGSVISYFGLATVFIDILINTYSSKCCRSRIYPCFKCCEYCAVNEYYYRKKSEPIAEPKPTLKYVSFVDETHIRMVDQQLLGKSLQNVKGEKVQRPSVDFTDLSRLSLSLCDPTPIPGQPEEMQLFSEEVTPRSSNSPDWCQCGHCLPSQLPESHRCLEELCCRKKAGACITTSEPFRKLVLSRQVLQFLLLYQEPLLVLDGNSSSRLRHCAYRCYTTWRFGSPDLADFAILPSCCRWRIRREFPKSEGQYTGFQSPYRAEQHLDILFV
The assay is described as follows: Whole cell patch clamp ATP dose response.

The next assay has as its target T2, pdP2X7cryst (Ailuropoda melanoleuca, UniProt G1M6C4, E175K/N242S/N285S/R126A/V36A).
T2 sequence (G1M6C4 23-360 V36A/R126A/E175K/N242S/N285S): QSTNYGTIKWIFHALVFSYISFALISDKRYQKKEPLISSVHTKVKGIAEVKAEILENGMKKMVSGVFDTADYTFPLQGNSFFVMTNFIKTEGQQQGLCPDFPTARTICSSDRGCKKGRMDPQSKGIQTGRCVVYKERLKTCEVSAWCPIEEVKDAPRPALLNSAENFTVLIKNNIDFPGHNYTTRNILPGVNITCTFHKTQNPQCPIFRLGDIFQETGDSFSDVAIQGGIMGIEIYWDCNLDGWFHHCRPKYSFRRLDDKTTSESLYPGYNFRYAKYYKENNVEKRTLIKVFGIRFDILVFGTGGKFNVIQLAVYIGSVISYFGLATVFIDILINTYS
The assay is described as follows: Whole cell patch clamp ATP dose response. (In general: The patch-clamp technique gives a direct electrical read-out from membranes.)

The next assay concerns the target P2X7 receptor. More on the design: method as in Yan et al., 2010. The conditions noted are these: under physiological ion concentrations; ref Yan et al., 2010; read-out: EC50 for initial activation; cited from earlier work.
Where [1] appears, read: competitive model, read-out: KB (equilibrium dissociation-constant of antagonist), competitive antagonism model.
The mark [2] stands for this setting: non-competitive model, α = 1, read-out: KB (equilibrium dissociation-constant of antagonist), non-competitive inhibition model.
The mark [3] stands for this setting: HEK293 cells, YO-PRO-1 uptake initiated with 1 mM ATP, initial rates, wildtype, read-out: IC50.
Setting [4] is: KB (equilibrium dissociation-constant of antagonist), competitive antagonism model, competitive model.
Where [5] appears, read: KB (equilibrium dissociation-constant of antagonist), non-competitive inhibition model, non-competitive model, α = 1.
[6] abbreviates: data without antagonists, non-competitive model equation.
[7] abbreviates: dose response without antagonist, competitive model equation.

Read-outs that look alike come from different tables or passages of the source.

Usually Kb stands for the affinity of an antagonist, worked out from how it opposes an agonist. Broadly, the IC50 is the concentration needed to halve the response being measured. One may read the EC50 as the concentration at which the effect is half-maximal.

In the case of `COc1ccc(CC(=O)NC(N/C(=N/C#N)Nc2cccc3ncccc23)C(C)(C)C)cc1OC` (centres unmarked) [A740003, N-(1-{[(cyanoimino)(5-quinolinylamino)methyl]amino}-2,2-dimethylpropyl)-2-(3,4-dimethoxyphenyl)acetamide], the Kb is 0.024 µM at wildtype pdP2X7 (setting [1]) and 1.2 µM on wildtype pdP2X7 (setting [2]). Besides, the IC50 on full length pdP2X7 (setting [3]) came to 0.0693 µM.
`O=C(CC12CC3CC(CC(C3)C1)C2)Nc1cccc2nc(NCCNCCO)ccc12` [AZ10606120]: the Kb stood at 0.056 µM at wildtype pdP2X7 (setting [4]) and 3.4 µM on wildtype pdP2X7 (setting [5]). Moreover, the IC50 on full length pdP2X7 amounted to 0.231 µM.
The like results for `O=C(NCC1(N2CCN(c3ccccc3)CC2)CCOCC1)c1cccnc1Sc1ccccc1` [JNJ47965567] were, in that order, 0.0017 µM, 0.14 µM and 0.0119 µM.
For `Nc1ncnc2c1ncn2[C@@H]1O[C@H](COP(=O)(O)OP(=O)(O)OP(=O)(O)O)[C@@H](OC(=O)c2ccc(C(=O)c3ccccc3)cc2)[C@H]1O` [BzATP], at wildtype pdP2X7 (setting [6]), the “KA (equilibrium dissociation-constant of BzATP), non-competitive inhibition model” value worked out at 220 µM; the “n (Hill coefficient), non-competitive inhibition model” value is 2.6; the “τ, non-competitive inhibition model” value turned out to be 10. Moreover, on wildtype pdP2X7 (setting [7]), the “KA (equilibrium dissociation-constant of BzATP), competitive antagonism model” value was 28 µM and the “τ, competitive antagonism model” value is 0.031.
For the molecule `Nc1ncnc2c1ncn2[C@@H]1O[C@H](COP(=O)(O)OP(=O)(O)OP(=O)(O)O)[C@@H](O)[C@H]1O` [ATP, adenosine triphosphate], the EC50 at pdP2X7 was 122 µM; on pdP2X7cryst, 40 µM; on P2X7 receptor it was no less than 1000 µM.
With `Cc1ccc(CN2CCNCC2)cc1NC(=O)CNc1ccc(F)c(F)c1` [GW791343], the Kb was 3 µM on wildtype pdP2X7 (setting [4]) and 266 µM on wildtype pdP2X7 (setting [5]). Further, on full length pdP2X7, the IC50 was found to be 8.9 µM.
Consider `C[C@H](N/C(=N/C#N)Nc1cccc2ncccc12)c1ccccc1` [A804598, 2-cyano-1-[(1S)-1-phenylethyl]-3-quinolin-5-ylguanidine], for which the figures for the Kb on wildtype pdP2X7 (setting [1]) and on wildtype pdP2X7 (setting [2]) were 0.015 µM and 0.57 µM, respectively. For the same molecule, the half-inhibitory concentration (IC50) on full length pdP2X7 (setting [3]) was determined as 0.0217 µM.
